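48-hour exposure; five concentrations; linearly interpolated endpoints. Here, GI50 denotes the concentration required for 50% inhibition of growth.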 Active and inactive are the calls of the source. Rule as the data show it: active = GI50 up to about 1.1 µM and inactive = higher.
Columns and labels:
Experiment in all cases: NCI tumour cell line growth inhibition, 48 h
[1] = test system: UACC-62
[2] = test system: UO-31
[3] = test system: HT-29
[4] = test system: SR
[5] = test system: MCF7
[6] = test system: SF-295
[7] = test system: SK-OV-3
[8] = test system: CAKI-1
[9] = test system: HL-60
[10] = test system: ACHN
[11] = test system: HOP-92
[12] = test system: A549
[13] = test system: SW-620
[14] = test system: COLO 205
[15] = test system: UACC-257
[16] = test system: MDA-MB-231
[17] = test system: HCC 2998
[18] = test system: SK-MEL-28
[19] = test system: SF-539
[20] = test system: K562
[21] = test system: SF-268
[22] = test system: RXF 393
[23] = test system: PC-3
[24] = test system: Malme-3M
[25] = test system: NCI-H522
[26] = test system: IGROV-1
[27] = test system: NCI-H23
[28] = test system: BT-549
[29] = test system: OVCAR-4
[30] = test system: NCI/ADR-RES
[31] = test system: HCT-116
[32] = test system: NCI-H460
[33] = test system: OVCAR-3
[34] = test system: 786-0
[35] = test system: SNB-19
[36] = test system: U-251
[37] = test system: OVCAR-8
[38] = test system: MDA-MB-435
[39] = test system: OVCAR-5
[40] = test system: EKVX
[41] = test system: TK-10
[42] = test system: DU-145
[43] = test system: Hs-578T
[44] = test system: SNB-75
[45] = test system: NCI-H226
[46] = test system: CCRF-CEM
[47] = test system: SN12C
[48] = test system: LOX IMVI
[49] = test system: SK-MEL-5
[50] = test system: SK-MEL-2
[51] = test system: HOP-62
[52] = test system: A498
[53] = test system: MDA-N
[54] = test system: MOLT-4
[55] = test system: RPMI-8226
[56] = test system: HCT-15
[57] = test system: KM12
[58] = test system: M14
[59] = test system: T47D

COC(=O)C1=C(C(=O)OC)N(c2ccncc2)C(c2ccco2)=CC1c1ccccc1[N+](=O)[O-] (stereo not drawn)
GI50 [1]: 9910 nM (inactive)
GI50 [2]: 3570 nM (inactive)
GI50 [3]: 1990 nM (inactive)
GI50 [4]: 750 nM (active)
GI50 [5]: 1870 nM (inactive)
GI50 [6]: 6190 nM (inactive)
GI50 [7]: 16800 nM (inactive)
GI50 [8]: 14200 nM (inactive)
GI50 [9]: 2460 nM (inactive)
GI50 [10]: 2010 nM (inactive)
GI50 [11]: 14100 nM (inactive)
GI50 [12]: 10300 nM (inactive)
GI50 [13]: 6900 nM (inactive)
GI50 [14]: 4750 nM (inactive)
GI50 [15]: 2020 nM (inactive)
GI50 [16]: 11600 nM (inactive)
GI50 [17]: 2030 nM (inactive)
GI50 [18]: 6320 nM (inactive)
GI50 [19]: 1750 nM (inactive)
GI50 [20]: 1440 nM (inactive)
GI50 [21]: 4720 nM (inactive)
GI50 [22]: 4650 nM (inactive)
GI50 [23]: 11500 nM (inactive)
GI50 [24]: 4550 nM (inactive)
GI50 [25]: 2030 nM (inactive)
GI50 [26]: 1950 nM (inactive)
GI50 [27]: 13900 nM (inactive)
GI50 [28]: 6700 nM (inactive)
GI50 [29]: 5970 nM (inactive)
GI50 [30]: 12100 nM (inactive)
GI50 [31]: 1600 nM (inactive)
GI50 [32]: 6110 nM (inactive)
GI50 [33]: 5270 nM (inactive)
GI50 [34]: 1700 nM (inactive)
GI50 [35]: 7180 nM (inactive)
GI50 [36]: 3320 nM (inactive)
GI50 [37]: 8040 nM (inactive)
GI50 [38]: 6150 nM (inactive)
GI50 [39]: 14600 nM (inactive)
GI50 [40]: 6590 nM (inactive)
GI50 [41]: 2750 nM (inactive)
GI50 [42]: 5240 nM (inactive)
GI50 [43]: 5940 nM (inactive)
GI50 [44]: 5640 nM (inactive)
GI50 [45]: 4990 nM (inactive)
GI50 [46]: 2210 nM (inactive)
GI50 [47]: 4710 nM (inactive)
GI50 [48]: 1720 nM (inactive)
GI50 [49]: 2390 nM (inactive)
GI50 [50]: 18200 nM (inactive)
GI50 [51]: 15500 nM (inactive)
GI50 [52]: 5240 nM (inactive)
GI50 [53]: 2710 nM (inactive)
GI50 [54]: 2160 nM (inactive)
GI50 [55]: 1390 nM (inactive)
GI50 [56]: 1890 nM
GI50 [57]: 1600 nM (inactive)
GI50 [58]: 4210 nM (inactive)
GI50 [59]: 3780 nM (inactive)

C[C@]12OC(=O)[C@]3(O)CC[C@H]4[C@@H](C[C@@H](O)[C@@]5(Cl)CC=CC(=O)[C@]45C)[C@]45OCC6C(=O)O[C@@H]1C[C@@]6(C)[C@H](C4=O)[C@@]32O5 (stereo partly drawn)
GI50 [1]: 879 nM (active)
GI50 [2]: 1230 nM (inactive)
GI50 [3]: 1550 nM (inactive)
GI50 [4]: 811 nM (active)
GI50 [5]: 774 nM (active)
GI50 [6]: 3050 nM (inactive)
GI50 [7]: 3500 nM (inactive)
GI50 [8]: 787 nM (active)
GI50 [9]: 356 nM (active)
GI50 [10]: 1050 nM (active)
GI50 [11]: 1420 nM (inactive)
GI50 [12]: 3370 nM (inactive)
GI50 [13]: 494 nM (active)
GI50 [14]: 867 nM (active)
GI50 [15]: 2010 nM (inactive)
GI50 [16]: 3020 nM (inactive)
GI50 [17]: 94.6 nM (active)
GI50 [18]: 1490 nM (inactive)
GI50 [19]: 759 nM (active)
GI50 [20]: 469 nM (active)
GI50 [21]: 767 nM (active)
GI50 [22]: 283 nM (active)
GI50 [23]: 2300 nM (inactive)
GI50 [24]: 1300 nM (inactive)
GI50 [25]: 160 nM (active)
GI50 [26]: 1000 nM (active)
GI50 [27]: 542 nM (active)
GI50 [28]: 586 nM (active)
GI50 [29]: 3780 nM (inactive)
GI50 [30]: 2600 nM (inactive)
GI50 [31]: 656 nM (active)
GI50 [32]: 1890 nM (inactive)
GI50 [33]: 1500 nM (inactive)
GI50 [34]: 617 nM (active)
GI50 [35]: 5730 nM (inactive)
GI50 [36]: 1500 nM (inactive)
GI50 [37]: 1410 nM (inactive)
GI50 [38]: 2000 nM (inactive)
GI50 [39]: 1400 nM (inactive)
GI50 [40]: 1240 nM (inactive)
GI50 [41]: 1600 nM (inactive)
GI50 [42]: 3820 nM (inactive)
GI50 [43]: 6440 nM (inactive)
GI50 [44]: 9310 nM (inactive)
GI50 [45]: 1910 nM (inactive)
GI50 [46]: 220 nM (active)
GI50 [47]: 1860 nM (inactive)
GI50 [48]: 951 nM (active)
GI50 [49]: 1560 nM (inactive)
GI50 [50]: 1170 nM (inactive)
GI50 [51]: 2780 nM (inactive)
GI50 [52]: 1370 nM (inactive)
GI50 [53]: 1160 nM (inactive)
GI50 [54]: 615 nM (active)
GI50 [55]: 596 nM (active)
GI50 [56]: 1460 nM
GI50 [57]: 2150 nM (inactive)
GI50 [58]: 1130 nM (inactive)
GI50 [59]: 1820 nM (inactive)

From ChEMBL document CHEMBL1201862, “PubChem BioAssay data set” (2004)
